Experimental data: patent US20240285769A1, “INJECTABLE, BIODEGRADABLE AND REMOVABLE POLYMER BASED DRUG SUSPENSION FOR ULTRA-LONG-ACTING DRUG DELIVERY” (The University of North Carolina at Chapel Hill, priority 2021, published 2024)

Columns and labels:
[1] = In vitro drug release studies of ISFIs; assay type: physicochemical; details: ISFI suspension 1:4 PLGA/(NMP:DMSO), 290 mg/g
Protocol: Sample aliquots (1 mL) were collected at various time points and replaced with fresh release medium. The release medium was completely removed and replaced with fresh medium every week to maintain sink conditions. Drug concentration in the release samples was quantified by HPLC using the method described above. Cumulative drug release was calculated from the HPLC analysis and normalized to the total mass of drug in the implant. All experiments were performed in quadruplicate. ISFIs were prepared with 1:2 w/w PLGA:(NMP/DMPS 1:1) (PLGA MW 27 kDa, 50:50 LA/GA). […] To investigate the effect of polymer MW on CAB release kinetics, two CAB suspension ISFIs were prepared using PLGA (50:50 LA/GA) with MW of 10 kDa and 27 kDa. CAB was loaded at a constant concentration of 250 mg/g as a stable suspension formulation in a 1:2 PLGA/solvent (solvent=NMP/DMSO 1:1 w/w). […] 55 μg/d compared to 13.53 μg/d for PLGA MW 27 kDa. […] The effect of formulation composition and addition of rate controlling polymers like star-PLGA (5-arm 50:50 LA/GA PLGA MW 54 kDa) on drug release kinetics were also investigated. Three formulations were prepared using NMP/DMSO (1:1) as a co-solvent system, PLGA (50:50 LA/GA MW 27 kDa) and PLGA/star-PLGA (9:1 w/w) polymer combination. CAB was loaded at a constant concentration of 300 mg/g in all three formulations. […]

[2] = Preparation and optimization of drug suspension formulations; assay type: physicochemical
Protocol: The polymer based drug suspensions were prepared by: (1) Placebo formulation: 50:50 Poly(DL-lactide-co-glycolide) (PLGA), MW 10 or 27 kDa, or Poly(lactic acid) (PLA) MW 10 kDa, was mixed with N-methyl-2-pyrrolidone (NMP) or a combination of NMP and DMSO (e.g. 1:1 v/v) at various weight ratios of PLGA/solvent (w/w) and allowed to dissolve by continuous mixing at room temperature (Placebo). […] (2) Drug loading: […] (3) Depot formation: A sample from the resulting drug-loaded suspension formulation (30 μL, 30±3 mg) was injected into 200 mL of 0.01 M PBS pH 7.4 using a pipette and incubated at 37° C. for 24 h to produce a spherical implant, as an example. […] Of importance, but without being limited to any particular theory or mechanism of action, is the ratio of the polymer:solvent:drug that achieves high drug loading in a stable polymeric suspension formulation and which is correlated to the drug's saturation solubility in the solvent system.

Cn1c(Cn2ccc(C(F)(F)F)c(Oc3cc(Cl)cc(C#N)c3)c2=O)n[nH]c1=O [DOR, Doravirine]
burst release in 24 h ([1]; PBS 37° C.): < 2%
drug release at d3 ([1]; last timepoint analyzed): 3%
suspension formation when loaded above saturation concentration in PLGA/solvent placebo [2]: formed stable syringeable formulations
depot formation when injected into aqueous release medium ([2]; PBS, pH 7.4, 37° C.): formation of stable depots
